{
  "source": "patent US11999716B2",
  "about": "“WDR5 inhibitors and modulators” (priority 2018, dated 2024)",
  "data": [
    {"test_system": "MV4:11 human cancer cell lines", "test": "Cellular viability / anti-proliferative activity, CellTiter-Glo, 5 day protocol", "type": "cell-based", "conditions": "Homo sapiens, MV4-11, 120 h, MV4:11 cells; 5 day incubation; CellTiter-Glo; mean of minimum two replicates; read-out: GI50 on cellular proliferation of MV4:11 human cancer cell lines", "description": "(§1) Cellular Viability of Human Tumor Cell Lines\n(§2) Anti proliferative activity using MLL-harboring cell lines. […] Viability assays are performed by dispensing 200 cells at 7200 cells/mL into each well of an opaque 384-well plate and adding compounds at the indicated concentrations in a final volume of 32 μL and a final concentration of DMSO of 0.3% for all samples. A certain range of compound concentrations is made through a series of 2-fold dilutions starting 30 μM at the highest, total 22 dilutions. After a set incubation period, 5 day protocol, the viability of cells in each well is assessed using the CellTiter-Glo assay (Promega), read on a 96 Microplane Luminometer (Cytation 3, BioTek). Serial dilutions of each cell type are performed in all assays to generate standard curves and the final densities of cells are determined within the dynamic range of the instrument. GI50 values are calculated based on XLfit software (IDBS, Guildford, UK) with Sigmoidal Dose-Response Model. Each compound is tested in minimum of two replicates. Data are expressed as mean.", "units": {"GI50": "nM"}, "values": [
      {"smiles": "COc1ccnc(CN2CCc3c(cc(Cn4ccnc4C)cc3-c3cn(C)nc3C(F)(F)F)C2=O)c1", "note": "[Example 8, 2-((4-Methoxypyridin-2-yl)methyl)-7-((2-methyl-1H-imidazol-1-yl)methyl)-5-(1-methyl-3-(trifluoromethyl)-1H-pyrazol-4-yl)-3,4-dihydroisoquinolin-1(2H)-one]", "GI50": "< 50"},
      {"smiles": "COc1ccnc(CN2CCc3c(cc(CNC(=N)C4CC4)cc3-c3cn(C)nc3C)C2=O)c1", "note": "[Example 119, N-((5-(1,3-Dimethyl-1H-pyrazol-4-yl)-2-((4-methoxypyridin-2-yl)methyl)-1-oxo-1,2,3,4-tetrahydroisoquinolin-7-yl)methyl)cyclopropanecarboximidamide]", "GI50": "> 938"},
      {"smiles": "Cc1nccn1Cc1cc2c(c(-c3cn(C)nc3C(F)(F)F)c1)CCN(c1ccccc1OC(C)C)C2=O", "note": "[Example 256, 2-(2-Isopropoxyphenyl)-7-((2-methyl-1H-imidazol-1-yl)methyl)-5-(1-methyl-3-(trifluoromethyl)-1H-pyrazol-4-yl)-3,4-dihydroisoquinolin-1(2H)-one]", "GI50": 3860},
      {"smiles": "Cc1cc([C@H](C)N2CCc3c(OCC4CC4)cc(Cn4ccn(C)c4=N)cc3C2=O)ccc1F", "note": "[Example 78, (S)-5-(Cyclopropylmethoxy)-2-(1-(4-fluoro-3-methylphenyl)ethyl)-7-((2-imino-3-methyl-2,3-dihydro-1H-imidazol-1-yl)methyl)-3,4-dihydroisoquinolin-1(2H)-one]", "GI50": "> 938"},
      {"smiles": "Cc1cccnc1CN1CCc2c(cc(Cn3ccnc3C)cc2-c2cn(C)nc2C(F)(F)F)C1=O", "note": "[Example 181, 7-((2-Methyl-1H-imidazol-1-yl)methyl)-5-(1-methyl-3-(trifluoromethyl)-1H-pyrazol-4-yl)-2-((3-methylpyridin-2-yl)methyl)-3,4-dihydroisoquinolin-1(2H)-one]", "GI50": 3460},
      {"smiles": "Cc1nccn1Cc1cc2c(c(-c3cn(C)nc3C(F)(F)F)c1)CCN(Cc1cc(Br)c3ccccc3n1)C2=O", "note": "[Example 204, 2-((4-Bromoquinolin-2-yl)methyl)-7-((2-methyl-1H-imidazol-1-yl)methyl)-5-(1-methyl-3-(trifluoromethyl)-1H-pyrazol-4-yl)-3,4-dihydroisoquinolin-1(2H)-one]", "GI50": 58},
      {"smiles": "Cc1cc(CN2CCc3c(cc(Cn4ccnc4C)cc3-c3cn(C)nc3C(F)(F)F)C2=O)cnc1Cl", "note": "[Example 213, 2-((6-Chloro-5-methylpyridin-3-yl)methyl)-7-((2-methyl-1H-imidazol-1-yl)methyl)-5-(1-methyl-3-(trifluoromethyl)-1H-pyrazol-4-yl)-3,4-dihydroisoquinolin-1(2H)-one]", "GI50": "< 50"},
      {"smiles": "CCn1cc(-c2cc(Cn3ccn(C4CC4)c3=N)cc3c2CCN(Cc2cc(OC)ccn2)C3=O)cn1", "note": "[Example 50, 7-((3-Cyclopropyl-2-imino-2,3-dihydro-1H-imidazol-1-yl)methyl)-5-(1-ethyl-1H-pyrazol-4-yl)-2-((4-methoxypyridin-2-yl)methyl)-3,4-dihydroisoquinolin-1(2H)-one]", "GI50": "> 938"},
      {"smiles": "COc1ccnc([C@H](C2CC2)N2CCc3c(cc(Cn4ccnc4)cc3-c3cn(C)nc3C(F)(F)F)C2=O)c1", "note": "[Example 252, (S)-7-((1H-Imidazol-1-yl)methyl)-2-(cyclopropyl(4-methoxypyridin-2-yl)methyl)-5-(1-methyl-3-(trifluoromethyl)-1H-pyrazol-4-yl)-3,4-dihydroisoquinolin-1(2H)-one]", "GI50": "< 50"},
      {"smiles": "CCn1cc(-c2cc(Cn3cnn(C)c3=N)cc3c2CCN(Cc2cc(C)nn2C)C3=O)c(C(F)(F)F)n1", "note": "[Example 128, 2-((1,3-Dimethyl-1H-pyrazol-5-yl)methyl)-7-((5-imino-1-methyl-1,5-dihydro-4H-1,2,4-triazol-4-yl)methyl)-5-(1-ethyl-3-(trifluoromethyl)-1H-pyrazol-4-yl)-3,4-dihydroisoquinolin-1(2H)-one]", "GI50": "> 938"},
      {"smiles": "CCn1cc(-c2cc(Cn3ccnc3C3CC3)cc3c2CCN([C@@H](C)c2cc(OC)ccn2)C3=O)c(C(F)(F)F)n1", "note": "[Example 159, (S)-7-((2-Cyclopropyl-1H-imidazol-1-yl)methyl)-5-(1-ethyl-3-(trifluoromethyl)-1H-pyrazol-4-yl)-2-(1-(4-methoxypyridin-2-yl)ethyl)-3,4-dihydroisoquinolin-1(2H)-one]", "GI50": "< 50"},
      {"smiles": "CCn1cc(-c2cc(Cn3ccnc3C)cc3c2CCN(Cc2cn(C)nc2C)C3=O)c(C(F)(F)F)n1", "note": "[Example 20, 2-((1,3-Dimethyl-1H-pyrazol-4-yl)methyl)-5-(1-ethyl-3-(trifluoromethyl)-1H-pyrazol-4-yl)-7-((2-methyl-1H-imidazol-1-yl)methyl)-3,4-dihydroisoquinolin-1(2H)-one]", "GI50": 508},
      {"smiles": "CCn1cc(-c2cc(Cn3ccn(C)c3=N)cc3c2CCN(Cc2cc(OC)ccn2)C3=O)c(C)n1", "note": "[Example 63, 5-(1-Ethyl-3-methyl-1H-pyrazol-4-yl)-7-((2-imino-3-methyl-2,3-dihydro-1H-imidazol-1-yl)methyl)-2-((4-methoxypyridin-2-yl)methyl)-3,4-dihydroisoquinolin-1(2H)-one]", "GI50": 274},
      {"smiles": "COc1ccnc(CN2CCc3c(cc(Cn4ccn(C5CC5)c4=N)cc3-c3cn(C)nc3C)C2=O)c1", "note": "[Example 48]", "GI50": 423},
      {"smiles": "Cc1nccn1Cc1cc2c(c(-c3cn(C)nc3C(F)(F)F)c1)CCN(Cc1cc(C3CC3)nn1C)C2=O", "note": "[Example 148, 2-((3-Cyclopropyl-1-methyl-1H-pyrazol-5-yl)methyl)-7-((2-methyl-1H-imidazol-1-yl)methyl)-5-(1-methyl-3-(trifluoromethyl)-1H-pyrazol-4-yl)-3,4-dihydroisoquinolin-1(2H)-one]", "GI50": "< 50"},
      {"smiles": "Cc1nccn1Cc1cc2c(c(-c3cn(C)nc3C(F)(F)F)c1)CCN(Cc1cc(Cl)cc3ccccc13)C2=O", "note": "[Example 225, 2-((3-Chloronaphthalen-1-yl)methyl)-7-((2-methyl-1H-imidazol-1-yl)methyl)-5-(1-methyl-3-(trifluoromethyl)-1H-pyrazol-4-yl)-3,4-dihydroisoquinolin-1(2H)-one]", "GI50": 195},
      {"smiles": "COc1ccnc(CN2CCc3c(cc(CN4CCCC4=N)cc3-c3cn(C)nc3C)C2=O)c1", "note": "[Example 110, 5-(1,3-Dimethyl-1H-pyrazol-4-yl)-7-((2-iminopyrrolidin-1-yl)methyl)-2-((4-methoxypyridin-2-yl)methyl)-3,4-dihydroisoquinolin-1(2H)-one]", "GI50": "> 938"},
      {"smiles": "Cc1nccn1Cc1cc2c(c(-c3cn(C)nc3C(F)(F)F)c1)CCN(Cc1ccc3ccccc3n1)C2=O", "note": "[Example 176, 7-((2-Methyl-1H-imidazol-1-yl)methyl)-5-(1-methyl-3-(trifluoromethyl)-1H-pyrazol-4-yl)-2-(quinolin-2-ylmethyl)-3,4-dihydroisoquinolin-1(2H)-one]", "GI50": 293},
      {"smiles": "CCn1cc(-c2cc(CN3CCN(C)C3=N)cc3c2CCN(Cc2cc(OC)ccn2)C3=O)c(C(F)(F)F)n1", "note": "[Example 55, 5-(1-Ethyl-3-(trifluoromethyl)-1H-pyrazol-4-yl)-7-((2-imino-3-methylimidazolidin-1-yl)methyl)-2-((4-methoxypyridin-2-yl)methyl)-3,4-dihydroisoquinolin-1(2H)-one]", "GI50": "< 50"},
      {"smiles": "COc1cc(CN2CCc3c(cc(Cn4cnn(C)c4=N)cc3-c3ccc(F)cc3C)C2=O)cc(OC)c1", "note": "[Example 121, 2-(3,5-Dimethoxybenzyl)-5-(4-fluoro-2-methylphenyl)-7-((5-imino-1-methyl-1,5-dihydro-4H-1,2,4-triazol-4-yl)methyl)-3,4-dihydroisoquinolin-1(2H)-one]", "GI50": 134},
      {"smiles": "COc1ccnc([C@H](C)N2CCc3c(cc(Cn4ccsc4=N)cc3-c3cn(C)nc3C(F)(F)F)C2=O)c1", "note": "[Example 105, (S)-7-((2-iminothiazol-3(2H)-yl)methyl)-2-(1-(4-methoxypyridin-2-yl)ethyl)-5-(1-methyl-3-(trifluoromethyl)-1H-pyrazol-4-yl)-3,4-dihydroisoquinolin-1(2H)-one]", "GI50": "< 50"},
      {"smiles": "Cc1ccnc(CN2CCc3c(cc(Cn4ccn(C5CC5)c4=N)cc3-c3cn(C)nc3C(F)(F)F)C2=O)c1", "note": "[Example 51, 7-((3-Cyclopropyl-2-imino-2,3-dihydro-1H-imidazol-1-yl)methyl)-5-(1-methyl-3-(trifluoromethyl)-1H-pyrazol-4-yl)-2-((4-methylpyridin-2-yl)methyl)-3,4-dihydroisoquinolin-1(2H)-one]", "GI50": "< 50"},
      {"smiles": "COc1ccnc(CN2CCc3c(cc(CN4CCCC4=N)cc3-c3ccc(F)cc3C)C2=O)c1", "note": "[Example 114, 5-(4-Fluoro-2-methylphenyl)-7-((2-iminopyrrolidin-1-yl)methyl)-2-((4-methoxypyridin-2-yl)methyl)-3,4-dihydroisoquinolin-1(2H)-one]", "GI50": 129}
    ]},
    {"test_system": "MV4:11 human cancer cell lines", "test": "Cellular viability / anti-proliferative activity, CellTiter-Glo, 5 day protocol", "type": "cell-based", "conditions": "Homo sapiens, MV4-11, 120 h, read-out: GI50 on cellular proliferation of MV4:11 human cancer cell lines", "description": "as §1, §2", "units": {"GI50": "nM"}, "values": [
      {"smiles": "CCn1cc(-c2cc(Cc3cnc[nH]3)cc3c2CCN([C@@H](C)c2cc(OC)ccn2)C3=O)c(C(F)(F)F)n1", "note": "[Example 250, (S)-7-((1H-Imidazol-5-yl)methyl)-5-(1-ethyl-3-(trifluoromethyl)-1H-pyrazol-4-yl)-2-(1-(4-methoxypyridin-2-yl)ethyl)-3,4-dihydroisoquinolin-1(2H)-one]", "GI50": "< 50"}
    ]},
    {"test_system": "MV4:11 human cancer cell lines", "test": "Cellular viability / anti-proliferative activity, CellTiter-Glo, 5 day protocol", "type": "cell-based", "conditions": "MV4:11 cells; 5 day incubation; CellTiter-Glo; mean of minimum two replicates; read-out: GI50 on cellular proliferation of MV4:11 human cancer cell lines", "description": "as §1, §2", "units": {"GI50": "nM"}, "values": [
      {"smiles": "Cc1cc(CN2CCc3c(cc(Cn4ccnc4C)cc3-c3cn(C)nc3C(F)(F)F)C2=O)cnc1Cl", "note": "[Example 242, 2-((6-Chloro-5-methylpyridin-3-yl)methyl)-7-((2-methyl-1H-imidazol-1-yl)methyl)-5-(1-methyl-3-(trifluoromethyl)-1H-pyrazol-4-yl)-3,4-dihydroisoquinolin-1(2H)-one]", "GI50": 50}
    ]}
  ]
}
